Test results from US20240400564A1 (Syndax Pharmaceuticals, Inc, priority 2021, published 2024).

Biological target: T1, human Menin and N-terminal portion of human MLL (amino acids 4-43) (Homo sapiens, UniProt O00255)
T1 construct: H-FL-Menin diluted to 4 nM in assay buffer
T1 sequence (O00255 1-610): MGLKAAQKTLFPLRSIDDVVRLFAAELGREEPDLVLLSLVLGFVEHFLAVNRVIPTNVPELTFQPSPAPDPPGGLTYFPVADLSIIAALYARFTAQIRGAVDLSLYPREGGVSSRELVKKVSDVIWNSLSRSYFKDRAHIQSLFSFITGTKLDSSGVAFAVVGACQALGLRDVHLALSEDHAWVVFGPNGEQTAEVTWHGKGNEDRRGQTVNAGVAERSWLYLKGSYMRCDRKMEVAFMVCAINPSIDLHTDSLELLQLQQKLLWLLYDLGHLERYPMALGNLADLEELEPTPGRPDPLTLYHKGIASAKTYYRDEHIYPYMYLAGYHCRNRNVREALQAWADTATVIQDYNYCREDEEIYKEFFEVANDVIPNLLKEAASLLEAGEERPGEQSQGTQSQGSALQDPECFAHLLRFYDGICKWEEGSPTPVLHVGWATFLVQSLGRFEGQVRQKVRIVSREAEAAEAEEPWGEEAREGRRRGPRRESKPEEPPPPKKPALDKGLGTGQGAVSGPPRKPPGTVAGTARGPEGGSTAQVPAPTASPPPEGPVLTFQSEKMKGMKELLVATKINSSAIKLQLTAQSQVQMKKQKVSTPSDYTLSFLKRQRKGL
Assay: Menin-MLL competition assay (HTRF)
Assay type: binding
Conditions: 1 hr incubation
From the text: Menin-MLL is a competition assay between human Menin and N-terminal portion of human MLL representing amino acids 4-43 of the protein. The interaction between Menin and MLL peptide was monitored by HTRF employing Terbium labeled anti-His6 antibody directed to the N-terminal His6-tag on recombinant Menin and FITC group covalently attached to the MLL peptide. The N-terminal fragment of MLL, retained in all MLL fusion proteins, is involved in the interactions with Menin, and this protein-protein interaction is critical for the MLL fusion proteins mediated leukemogenic transformations.
For IC50 determination test compounds were prepared as 10 mM DMSO stock solutions. Considering DMSO as the vehicle in the assay system. Lower sub-stocks of 50 μM were prepared from the 10 mM stock solution. To test the compounds in assay, 3.16-fold serial dilutions are made in 100% DMSO. Mid-stock of 50×compounds (50 μM) were serially diluted (3.16 fold) in 100% DMSO in Polypropylene plate. In assay plate 1 micro-litre of the previously prepared compound dilution was stamped. H-FL-Menin diluted to 4 nM in assay buffer (50 mM Tris-HCl, pH 7.4, 50 mM NaCl, freshly prepared 1 mM DTT, 0.01% BSA, 0.005% Triton X-100) was pre-incubated with 8 nM anti-His6-Tb for 30 min at room temperature. FITC-MLL-4-43 was diluted to 2 nM in assay buffer and 25 μL was dispensed into each well of the assay plate followed by addition of 25 μl of pre-incubated H-FL-Menin and anti-His6-Tb mixture. Final concentration H-FL-Menin diluted to 1 nM in assay plate with 2 nM anti-His6-Tb and 1 nM FITC-MLL-4-43. After 1 hr incubation at room temperature, the HTRF signal was measured on the Spark multi-label plate reader. Resulting data were captured as a ratio of RFU520/RFU485×1000. The max values were obtained from 0% inhibition in presence of 2% DMSO and the min. values were 100% inhibition in presence of 1 μM reference compound.

Row | SMILES | IC50 [µM]
1 | CCN(C(=O)c1cc(F)ccc1Oc1cncnc1N1CC2(CCN(C[C@@H]3CC[C@@H](NS(=O)(=O)CC4CC4)CO3)CC2)C1)C(C)C [Example 7, 2-((4-(7-(((2S,5R)-5-((Cyclopropylmethyl)sulfonamido)tetrahydro-2H-pyran-2-yl)methyl)-2,7-diazaspiro[3.5]nonan-2-yl)pyrimidin-5-yl)oxy)-N-ethyl-5-fluoro-N-isopropylbenzamide] | < 0.1
2 | CCS(=O)(=O)N[C@@H]1CC[C@@H](CN2CCC3(CC2)CN(c2ncncc2Oc2ccc(F)cc2C(=O)N(C(C)C)[C@@H]2CCOC2)C3)OC1 [Example 46, 2-((4-(7-(((2S,5R)-5-(Ethylsulfonamido)tetrahydro-2H-pyran-2-yl)methyl)-2,7-diazaspiro[3.5]nonan-2-yl)pyrimidin-5-yl)oxy)-5-fluoro-N-isopropyl-N-((R)-tetrahydrofuran-3-yl)benzamide] | < 0.1
3 | C[C@@H]1COC[C@@H](C)N1C(=O)c1cc(F)ccc1Oc1cncnc1N1CC2(CCN(C[C@@H]3CC[C@@H](NS(=O)(=O)C4COC4)CO3)CC2)C1 [Example 32, N-((3R,6S)-6-((2-(5-(2-((3R,5R)-3,5-Dimethylmorpholine-4-carbonyl)-4-fluorophenoxy)pyrimidin-4-yl)-2,7-diazaspiro[3.5]nonan-7-yl)methyl)tetrahydro-2H-pyran-3-yl)oxetane-3-sulfonamide] | < 0.1
4 | CC(C)S(=O)(=O)N[C@@H]1CC[C@@H](CN2CCC3(CC2)CN(c2ncncc2Oc2ccc(F)cc2C(=O)N2[C@H](C)COC[C@@H]2C)C3)OC1 [Example 25, N-((3R,6S)-6-((2-(5-(2-((3S,5R)-3,5-Dimethylmorpholine-4-carbonyl)-4-fluorophenoxy)pyrimidin-4-yl)-2,7-diazaspiro[3.5]nonan-7-yl)methyl)tetrahydro-2H-pyran-3-yl)propane-2-sulfonamide] | < 0.1
5 | C[C@@H]1COC[C@H](C)N1C(=O)c1cc(F)ccc1Oc1cncnc1N1CC2(CCN(C[C@@H]3CC[C@@H](NS(=O)(=O)C4CC4)CO3)CC2)C1 [Example 26, N-((3R,6S)-6-((2-(5-(2-((3S,5R)-3,5-Dimethylmorpholine-4-carbonyl)-4-fluorophenoxy)pyrimidin-4-yl)-2,7-diazaspiro[3.5]nonan-7-yl)methyl)tetrahydro-2H-pyran-3-yl)cyclopropanesulfonamide] | < 0.1
6 | C[C@@H]1COC[C@H](C)N1C(=O)c1cc(F)ccc1Oc1cncnc1N1CC2(CCN(C[C@@H]3CC[C@@H](NS(C)(=O)=O)CO3)CC2)C1 [Example 23, N-((3R,6S)-6-((2-(5-(2-((3S,5R)-3,5-Dimethylmorpholine-4-carbonyl)-4-fluorophenoxy)pyrimidin-4-yl)-2,7-diazaspiro[3.5]nonan-7-yl)methyl)tetrahydro-2H-pyran-3-yl)methanesulfonamide] | < 0.1
7 | C[C@@H]1COC[C@@H](C)N1C(=O)c1cc(F)ccc1Oc1cncnc1N1CC2(CCN(C[C@@H]3CC[C@@H](NS(C)(=O)=O)CO3)CC2)C1 [Example 28, N-((3R,6S)-6-((2-(5-(2-((3R,5R)-3,5-Dimethylmorpholine-4-carbonyl)-4-fluorophenoxy)pyrimidin-4-yl)-2,7-diazaspiro[3.5]nonan-7-yl)methyl)tetrahydro-2H-pyran-3-yl)methanesulfonamide] | < 0.1
8 | CC(C)N(C(=O)c1cc(F)ccc1Oc1cncnc1N1CC2(CCN(C[C@@H]3CC[C@@H](NS(=O)(=O)C(C)C)CO3)CC2)C1)C1CC1 [Example 20, N-Cyclopropyl-5-fluoro-N-isopropyl-2-((4-(7-(((2S,5R)-5-((1-methylethyl)sulfonamido)tetrahydro-2H-pyran-2-yl)methyl)-2,7-diazaspiro[3.5]nonan-2-yl)pyrimidin-5-yl)oxy)benzamide] | < 0.1
9 | CCS(=O)(=O)N[C@@H]1CC[C@@H](CN2CCC3(CC2)CN(c2ncncc2Oc2ccc(F)cc2C(=O)N2[C@H](C)COC[C@@H]2C)C3)OC1 [Example 24, N-((3R,6S)-6-((2-(5-(2-((3S,5R)-3,5-dimethylmorpholine-4-carbonyl)-4-fluorophenoxy)pyrimidin-4-yl)-2,7-diazaspiro[3.5]nonan-7-yl)methyl)tetrahydro-2H-pyran-3-yl)ethanesulfonamide] | < 0.1
10 | CCN(C(=O)c1cc(F)ccc1Oc1cncnc1N1CC2(CCN(C[C@@H]3CC[C@@H](NS(=O)(=O)CCOC)CO3)CC2)C1)C(C)C [Example 8, N-Ethyl-5-fluoro-N-isopropyl-2-((4-(7-(((2S,5R)-5-((2-methoxyethyl)sulfonamido)tetrahydro-2H-pyran-2-yl)methyl)-2,7-diazaspiro[3.5]nonan-2-yl)pyrimidin-5-yl)oxy)benzamide] | < 0.1
11 | CCN(C(=O)c1cc(F)ccc1Oc1cncnc1N1CC2(CCN(C[C@@H]3CC[C@@H](NS(=O)(=O)C4COC4)CO3)CC2)C1)C(C)C [Example 5, N-Ethyl-5-fluoro-N-isopropyl-2-((4-(7-(((2S,5R)-5-(oxetane-3-sulfonamido)tetrahydro-2H-pyran-2-yl)methyl)-2,7-diazaspiro[3.5]nonan-2-yl)pyrimidin-5-yl)oxy)benzamide] | < 0.1
12 | C[C@@H]1COC[C@@H](C)N1C(=O)c1cc(F)ccc1Oc1cncnc1N1CC2(CCN(C[C@@H]3CC[C@@H](NS(=O)(=O)C4CC4)CO3)CC2)C1 [Example 31, N-((3R,6S)-6-((2-(5-(2-((3R,5R)-3,5-dimethylmorpholine-4-carbonyl)-4-fluorophenoxy)pyrimidin-4-yl)-2,7-diazaspiro[3.5]nonan-7-yl)methyl)tetrahydro-2H-pyran-3-yl)cyclopropanesulfonamide] | < 0.1
13 | C[C@H]1COCCN1C(=O)c1cc(F)ccc1Oc1cncnc1N1CC2(CCN(C[C@@H]3CC[C@@H](NS(=O)(=O)C4CC4)CO3)CC2)C1 [Example 40, N-((3R,6S)-6-((2-(5-(4-Fluoro-2-((S)-3-methylmorpholine-4-carbonyl)phenoxy)pyrimidin-4-yl)-2,7-diazaspiro[3.5]nonan-7-yl)methyl)tetrahydro-2H-pyran-3-yl)cyclopropanesulfonamide] | < 0.1
14 | CC(C)S(=O)(=O)N[C@@H]1CC[C@@H](CN2CCC3(CC2)CN(c2ncncc2Oc2ccc(F)cc2C(=O)N2[C@H](C)COC[C@H]2C)C3)OC1 [Example 30, N-((3R,6S)-6-((2-(5-(2-((3R,5R)-3,5-Dimethylmorpholine-4-carbonyl)-4-fluorophenoxy)pyrimidin-4-yl)-2,7-diazaspiro[3.5]nonan-7-yl)methyl)tetrahydro-2H-pyran-3-yl)propane-2-sulfonamide] | < 0.1
15 | COCCN(C(=O)c1cc(F)ccc1Oc1cncnc1N1CC2(CCN(C[C@@H]3CC[C@@H](NS(=O)(=O)C4CC4)CO3)CC2)C1)C(C)C [Example 51, 2-((4-(7-(((2S,5R)-5-(Cyclopropanesulfonamido)tetrahydro-2H-pyran-2-yl)methyl)-2,7-diazaspiro[3.5]nonan-2-yl)pyrimidin-5-yl)oxy)-5-fluoro-N-isopropyl-N-(2-methoxyethyl)benzamide] | < 0.1
16 | CCNC(=O)N[C@@H]1CC[C@@H](CN2CCC3(CC2)CN(c2ncncc2Oc2ccc(F)cc2C(=O)N(CC)C(C)C)C3)OC1 [Example 39, N-Ethyl-2-((4-(7-(((2S,5R)-5-(3-ethylureido)tetrahydro-2H-pyran-2-yl)methyl)-2,7-diazaspiro[3.5]nonan-2-yl)pyrimidin-5-yl)oxy)-5-fluoro-N-isopropylbenzamide] | < 0.1
17 | CCN(C(=O)c1cc(F)ccc1Oc1cncnc1N1CC2(CCN(C[C@@H]3CC[C@@H](NC(=O)NCC4CC4)CO3)CC2)C1)C(C)C [Example 42, 2-((4-(7-(((2S,5R)-5-(3-(Cyclopropylmethyl)ureido)tetrahydro-2H-pyran-2-yl)methyl)-2,7-diazaspiro[3.5]nonan-2-yl)pyrimidin-5-yl)oxy)-N-ethyl-5-fluoro-N-isopropylbenzamide] | < 0.1
